# Experiments:
# endothelial cells [1] = conditions: report of Chavala et al [26]; cited from earlier work
# endothelial cells [2] = conditions: report of Chavala et al [26]; cited from earlier work; remark: listed apart in the source
# VSMC = conditions: report of Chavala et al [26]; cited from earlier work
# p53 [3] = conditions: report of Chavala et al [26]; cited from earlier work
# p53 [4] = biological target: T1, p53 (Mus musculus, UniProt P02340); assay: Blood flow restoration after hindlimb ischemia by laser Doppler perfusion imaging (LDPI), p53+/+ mice; format: in vivo; set-up: from tissue; host or cells: live C57Bl/6 p53+/+ mice (hindlimb muscle and arteries); conditions: 2 weeks after hindlimb ischemia, vs vehicle
# T1 sequence (P02340 whole entry, the tested form may be a part): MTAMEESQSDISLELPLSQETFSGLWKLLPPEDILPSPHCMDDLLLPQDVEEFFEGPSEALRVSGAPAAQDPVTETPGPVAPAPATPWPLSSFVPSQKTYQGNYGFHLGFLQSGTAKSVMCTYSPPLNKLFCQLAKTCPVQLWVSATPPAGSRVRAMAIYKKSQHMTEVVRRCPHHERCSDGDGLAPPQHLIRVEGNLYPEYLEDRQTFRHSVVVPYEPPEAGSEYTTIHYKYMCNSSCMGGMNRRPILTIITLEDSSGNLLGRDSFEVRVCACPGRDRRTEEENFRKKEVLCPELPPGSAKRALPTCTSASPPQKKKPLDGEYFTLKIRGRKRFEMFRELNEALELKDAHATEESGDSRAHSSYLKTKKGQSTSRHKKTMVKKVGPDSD
# Method: (§1) All experiments and animal husbandry were performed with approval from the University of California, San Francisco and University of Maryland Institutional Animal Care and Use Committees. Wild-type (p53^+/+), p53-null (p53^−/−), and p53^−/+ heterozygoytes were maintained on a C57Bl/6 background. […] For pharmacological modulation of p53 in vivo, quinacrine or vehicle (sterile water) was administered intraperitoneally at 10 mg/kg/day, beginning 5 days prior to surgery, and continued daily post-operatively until the experimental endpoint; PFT-α or vehicle (10% DMSO) was administered intraperitoneally at 2 mg/kg/day every other day beginning two days prior to surgery and continued until the experimental end-point. […]
# (§2) Restoration of blood flow after hindlimb ischemia was assessed by laser Doppler perfusion imaging (LDPI) of the hindlimb paws using a PeriScan PIM 3 System (Perimed AB; Stockholm, Sweden) as previously described. Three successive readings were averaged and expressed as an ischemic index (ischemic paw over contralateral paw). For mesenteric artery ligation, blood flow was measured in the HF or CTL artery as volume-flow with a nanoprobe secured around the artery (0.5 mm nanoprobe, Transonic Systems Inc., Ithaca, N.Y.) in anesthetized mice. Flow was averaged over ten minutes and expressed as an arterial index (HF artery over CTL artery).
# p53 [5] = biological target: T1, p53; assay: Collateral artery development (arteriogenesis, gracilis artery index) after hindlimb ischemia; format: in vivo; set-up: from tissue; host or cells: live C57Bl/6 p53+/+ mice (hindlimb muscle and arteries); conditions: p53+/+ mice, vs vehicle
# Method: All experiments and animal husbandry were performed with approval from the University of California, San Francisco and University of Maryland Institutional Animal Care and Use Committees. Wild-type (p53^+/+), p53-null (p53^−/−), and p53^−/+ heterozygoytes were maintained on a C57Bl/6 background. […] For pharmacological modulation of p53 in vivo, quinacrine or vehicle (sterile water) was administered intraperitoneally at 10 mg/kg/day, beginning 5 days prior to surgery, and continued daily post-operatively until the experimental endpoint; PFT-α or vehicle (10% DMSO) was administered intraperitoneally at 2 mg/kg/day every other day beginning two days prior to surgery and continued until the experimental end-point. Mesenteric artery ligation was performed on 8- to 12-week old male wild-type and p53^−/− mice as described previously with modifications. A laparotomy was performed and the small intestine exposed and suffused with warmed saline. […] The control artery (CTL) was considered a straight artery three arteries from the site of ligation. […]
# Independent experiments with separate animal cohorts for capillary and larger artery analysis were performed. […] Vascular regions were quantified individually and normalized to the contralateral control muscle. […] Two 5 μm sections in two separate areas 0.5 mm apart were measured and the results averaged. […]
# p53 [6] = biological target: T1, p53; assay: Capillary density in ischemic tibialis anterior muscle after hindlimb ischemia; format: in vivo; set-up: from tissue; host or cells: live C57Bl/6 p53+/+ mice (hindlimb muscle and arteries); conditions: p53+/+ mice, vs vehicle
# VEGF = assay: Immunoblot of VEGF protein in ischemic tissue after hindlimb ischemia; format: in vivo, mouse
# Method: (§3) All experiments and animal husbandry were performed with approval from the University of California, San Francisco and University of Maryland Institutional Animal Care and Use Committees. Wild-type (p53^+/+), p53-null (p53^−/−), and p53^−/+ heterozygoytes were maintained on a C57Bl/6 background. […]
# (§4) TA tissue from ischemic and control limbs from were harvested and pulverized in liquid nitrogen. For whole cell lysates, pulverized tissue was incubated in a modified RIPA buffer (50 mM Tris-HCl, pH 7.4; 1% SDS; 1% NP-40; 0.25% sodium deoxycholate; 1 mM PMSF; 1 mM DTT; Complete Mini, EDTA-free protease inhibitor cocktail and PhosStop phosphatase inhibitor tablets (Roche Applied Science; Indianapolis, Ind.), strained, and sonicated 3 times for 10 seconds. Samples were centrifuged at 10,000 G for ten minutes at 4 C, and the supernatant preserved. Protein concentration was measured using a BCA Protein Assay Kit. A total of 20 μg of protein was resolved on a 4-12% Bis-Tris gradiant polyacrylamide gel (Invitrogen; Carlsbad, Calif.) under reduced conditions and transferred to a PVDF membrane (Amersham Biosciences; Pittsburgh, Pa.). […]
# p53 [7] = biological target: T1, p53; assay: Diabetic ischemia model of hindlimb ischemia; format: in vivo; set-up: relieving ischemia in a clinically relevant diabetic ischemia model of hindlimb ischemia; from tissue; host or cells: animal model of diabetic hindlimb ischemia (not described further); conditions: clinically relevant diabetic ischemia model of hindlimb ischemia
# HIF-1α = assay: Immunoblot of HIF-1α protein in ischemic tissue after hindlimb ischemia; format: in vivo, mouse
# Method: as §3, §4
# p53 [8] = assay: Blood flow restoration after hindlimb ischemia by LDPI, p53-/- mice (specificity control); format: in vivo, mouse; conditions: 2 weeks after hindlimb ischemia
# Method: as §1, §2
# aortic rings = assay: Endothelial outgrowth aortic ring assay under hypoxic conditions; format: cell-based, mouse; conditions: 20 μM quinacrine, vs vehicle-treated controls
# [9] = PFT-α 2 mg/kg/day every other day intraperitoneally
# [10] = PFT-α-treated mice, 3 days after surgery
# [11] = quinacrine 10 mg/kg/day intraperitoneally
# [12] = quinacrine-treated mice, 7 days after hindlimb ischemia
compound,measurement,setting,value
COc1ccc(C2=N[C@@H](c3ccc(Cl)cc3)[C@@H](c3ccc(Cl)cc3)N2C(=O)N2CCNC(=O)C2)c(OC(C)C)c1 [Nutlin-3],proliferation of endothelial cells,endothelial cells [1],inhibited proliferation
same,apoptosis in endothelial cells,endothelial cells [2],induced apoptosis
same,proliferation of VSMC,VSMC,inhibited proliferation
same,pathologic retinal angiogenesis,p53 [3],inhibit pathologic retinal angiogenesis
"Cc1ccc(C(=O)Cn2c3c(sc2=N)CCCC3)cc1 [PFT-α, pifithrin-α]",blood flow restoration after ischemia (LDPI),p53 [4]; [9],enhanced blood flow restoration
same,collateral vessel formation (gracilis artery index),"p53 [5]; PFT-α 2 mg/kg/day every other day intraperitoneally, 2 weeks after hindlimb ischemia",collateral vessel formation increased
same,capillary growth (capillary counts),p53 [6]; [9],No difference in capillary growth was detected
same,VEGF protein levels,VEGF; [10],increase
same,arteriogenesis and relief of ischemia,p53 [7],highly effective at increasing arteriogenesis and relieving ischemia
same,HIF-1α protein levels,HIF-1α; [10],increase
same,blood flow restoration after ischemia in p53-/- mice (LDPI),p53 [8]; PFT-α,had no effect on blood flow restoration
CCN(CC)CCCC(C)Nc1c2ccc(Cl)cc2nc2ccc(OC)cc12 (stereo not drawn) [quinacrine],blood flow after ischemia (LDPI),p53 [4]; [11],significantly attenuated the improvement in blood flow
same,endothelial outgrowth from aortic rings,aortic rings,significantly inhibited endothelial outgrowth
same,collateral development (larger vessel growth),"p53 [5]; quinacrine 10 mg/kg/day intraperitoneally, hindlimb ischemia",did impair collateral development
same,capillary density,p53 [6]; [11],did not affect capillary density
same,VEGF protein levels,VEGF; [12],suppressed
same,HIF-1α protein levels,HIF-1α; [12],suppressed
same,blood flow after ischemia in p53-/- mice (LDPI),p53 [8]; quinacrine,had no effect on blood flow
